Data: patent US20060160114A1, “Reagents and methods for predicting drug resistance” (Oncotech, Inc., priority 2004, published 2006)

System: tumor cells from patient tumor samples
Assay: Extreme Drug Resistance (EDR) assay, tritiated thymidine incorporation in soft agarose culture
Type: cell-based, human
Settings: supratoxic dose 33 μM, positive (background) control group
Protocol: In the practice of this assay, tumor cells are taken from a cancer biopsy and exposed to cancer chemotherapeutics in culture. During the culture period, radioactive thymidine is added, which is incorporated into the DNA of growing and dividing cancer cells (which are thus resistant to the cytostatic or cytotoxic effects of the cancer chemotherapeutic). Tritiated thymidine is not incorporated into cells that are sensitive to the drug and reduce or suspend growth and division in response to the drug. […] By measuring the amount of radioactivity in a sample, the assay determines the relative resistance of an individual patient's cancer cells to a number of different chemotherapies. […]
The EDR assay is an agarose-based culture system, using tritiated thymidine incorporation to define in vitro drug response. […] The radioactivity trapped on the filters was counted with an LS-6500 scintillation Counter (Beckman, Fullerton, Calif.). […] Detectable radioactivity for this group was considered non-specific background related to debris trapping of tritiated thymidine on the filter. After subtracting background control values, percent control inhibition (PCI) of proliferation was determined by comparing thymidine incorporation by the treatment group with incorporation by the negative control group: PCI=100%×[1−(CPM treatment group/CPM control group)]. […]

`N.N.[Cl][Pt][Cl]` [Cisplatin] showed a cell death of 100%.
